Experimental data: article PMC5207132, “New Insights into the Cyclic Di-adenosine Monophosphate (c-di-AMP) Degradation Pathway and the Requirement of the Cyclic Dinucleotide for Acid Stress Resistance in Staphylococcus aureus” (The Journal of Biological Chemistry, 2016)

What was measured:
GdpP = molecular target: T1, GdpP (Staphylococcus aureus, UniProt A0A0H2XJV8); experiment: radiolabelled c-di-AMP hydrolysis, TLC; format: biochemical
T1 construct: gene SAUSA300_0014

Pde2 = molecular target: T2, Pde2 (Staphylococcus aureus, UniProt A0A0H2XFX6); experiment: radiolabelled pApA hydrolysis, TLC; format: biochemical
T2 construct: gene SAUSA300_1650
T2 sequence (A0A0H2XFX6 entry or part of it): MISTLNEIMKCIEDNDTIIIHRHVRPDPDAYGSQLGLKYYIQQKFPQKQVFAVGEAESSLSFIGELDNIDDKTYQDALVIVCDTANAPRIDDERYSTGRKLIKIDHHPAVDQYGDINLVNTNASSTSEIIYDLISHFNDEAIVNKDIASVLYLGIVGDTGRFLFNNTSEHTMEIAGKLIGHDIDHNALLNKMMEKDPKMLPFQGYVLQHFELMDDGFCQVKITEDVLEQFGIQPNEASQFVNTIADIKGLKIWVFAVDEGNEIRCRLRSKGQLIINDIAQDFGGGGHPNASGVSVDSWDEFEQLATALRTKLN

T1 sequence (A0A0H2XJV8 entry or part of it): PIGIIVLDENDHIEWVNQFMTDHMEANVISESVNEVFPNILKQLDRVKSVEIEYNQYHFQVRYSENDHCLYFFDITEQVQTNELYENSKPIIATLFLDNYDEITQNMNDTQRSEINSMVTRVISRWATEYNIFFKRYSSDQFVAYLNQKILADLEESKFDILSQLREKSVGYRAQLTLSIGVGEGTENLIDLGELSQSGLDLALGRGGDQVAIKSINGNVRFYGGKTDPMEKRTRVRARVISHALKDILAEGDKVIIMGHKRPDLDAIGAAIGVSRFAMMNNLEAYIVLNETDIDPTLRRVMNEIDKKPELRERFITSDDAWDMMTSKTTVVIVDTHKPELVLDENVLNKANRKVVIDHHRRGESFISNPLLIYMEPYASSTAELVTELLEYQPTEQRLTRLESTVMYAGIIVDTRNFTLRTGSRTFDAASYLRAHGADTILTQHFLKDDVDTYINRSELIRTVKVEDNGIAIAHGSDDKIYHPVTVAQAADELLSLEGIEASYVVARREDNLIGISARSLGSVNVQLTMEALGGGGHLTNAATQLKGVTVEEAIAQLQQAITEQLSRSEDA

## Nc1ncnc2c1ncn2[C@@H]1O[C@H](COP(=O)(O)O[C@H]2[C@@H](O)[C@H](n3cnc4c(N)ncnc43)O[C@@H]2COP(=O)(O)O)[C@@H](O)[C@H]1O [pApA]
GdpP
  IC50: 78 ± 2.34 µM

## Nc1nc2c(ncn2[C@@H]2O[C@H](COP(=O)(O)OP(=O)(O)O)[C@@H](OP(=O)(O)OP(=O)(O)O)[C@H]2O)c(=O)[nH]1 [ppGpp]
Pde2
  IC50: 139 ± 5.6 µM
